Laboratory results from patent publication US20040122209A1, “Products for regulating the degradation of collagen and methods for identifying same” (Shriners Hospital For Children, priority 2002, published 2004).

System: bovine articular cartilage explant
Assay: Collagenase-cleaved type II collagen (COL2-3/4C) in bovine articular cartilage explant culture
Type: cell-based
Conditions: 1 and 10 μM, time- and dose-dependent
Procedure: The cartilages were prepared as previously described (Dahlberg, L. et al. (2000) supra. In brief, the cartilage samples were washed three times with basal culture medium containing Dulbecco's modified Eagle's medium (DMEM; Gibco BRL, Life Technologies, Grand Island, N.Y.) with 20 mM HEAPS buffer (pH 7.4) (Gibco BRL), 45 mM NaHCO3, 100 units/ml penicillin, 100 μg/ml streptomycin and 150 μg/ml gentamycin sulphate (Medium A). Full-depth cartilage slices from a single area, around 20 mm×20 mm were cut vertical to the articular surface and then into cubes of approximately 2 mm×2 mm (5-7 cubes were randomly obtained and wet weights about 50-70 mg/well determined).
The cartilage was assigned to 48 well plate (ca 40 mg/well) and kept in Medium A supplemented with 50 μg/ml ascorbic acid, 0.1 mg/bovine serum albumin, 50 μg/ml insulin, 5.0 μg/ml and 5.0 μg/ml sodium DMEM alone at 37° C. in 95% air/5% CO2. The cartilage was precultured for 2 days and medium was changed at day 0. Thereafter medium (as described in pellet cultures) was replaced every four days. Various CNBr fragments and/or synthetic peptides were freshly added from day 0 at each medium change. Thereafter, cartilage explants and conditioned media were harvested and stored at −20° C.
The cell pellets and cartilage explant cultured for various times were digested for the extraction of collagenase-generated neoepitope COL2-3/4Cshort (Billinghurst, R. C. et al., (1997) supra) and denatured type II collagen epitope COL2-3/4m and total type II collagen (Hollander, A. P. et al. (1994a) supra), as previously described: Briefly, the harvested pellets were incubated overnight with 1.0 mg/ml α-chymotrypsin at 37° C. to cleave and solubilize denatured collagen leaving the above neoepitope and epitope intact. After inhibition of α-chymotrypsin activity with N-tosyl-L-phenelalanine-chloromethyl ketone (Sigma), the samples were centrifuged and the supernatants were removed and boiled for 10 min. The COL2-3/4Cshort epitope (hereafter referred to as COL2-3/4Cshort) generated by cleavage of type II collagen by collagenase (Billinghurst, R. C. et al. (1997) supra) and intrachain epitope (COL2-3/4m) exposed in denatured type II collagen (Hollander, A. P. et al. (1994a) supra) were measured in α-chymotrypsin extracts by immunoassay. The COL2-3/4Cshort epitope is detected in an ELISA assay using a rabbit antibody to the carboxyterminal cleavage neoepitope on the TCA piece generated by primary collagenase cleavage of type II collagen. The release of the COL2-3/4C epitope into media was also measured by immunoassay. Total contents in tissue/cells and media was recorded for COL2-3/^4Cshort epitope. The COL2-3/4m epitope was recorded in cells and tissue where it was concentrated. The remaining residues of pellets and explants were digested overnight with 1.0 mg/ml proteinase K at 56° C. to extract the remaining intact type II collagen and then boiled for 10 min to denature the enzyme. Total type II collagen content in the pellets and explant was determined from the collective amount of COL2-3/4m in both the α-chymotrypsin and proteinase K digests.

Sequence: ERGPPGPQGARGFPGTPGLPGVK [CB12-II]
- induction of total collagenase cleavage of type II collagen by CB12 subpeptides: most pronounced
